Test results taken from patent US4038395A, “Compositions of and method of treating with the alpha-isomer of 2-chloro-9-[3'-(N'-2-hydroxyethylpiperazino-N)-propylidene]-thiaxanthene , carboxylic acid esters thereof and acid addition salts of these compounds” (Kefalas A/S, priority 1973, dated 1977).
Counter-ions that a name gives are not always drawn. Like-named read-outs stand apart in the source and are kept apart here.

Experiments:
[1] = tested on: apomorphine-induced gnaw-compulsion; experiment: Apomorphine antagonism in rats (gnaw-compulsion); type: in vivo, male rats (Wistar/Af/Han/Mo)(Han 67) SPF; conditions: for ED50: apomorphine 10 mg/kg s.c. 2 h later
Source text: (§1) Alpha-clopenthixol and its decanoic acid ester have been tested for neuroleptic activity with standard reliable test methods. In the testing alpha- and beta-clopenthixol (alpha-CPT and beta-CPT) have been compared with a sample of clopenthixol (CPT) containing 34% alpha-CPT as determined by I.R. spectrophotometry.
The test method used is a slight modification of the test described by Janssen, P.A.J., Niemegeers, C.J.E. and Schellekens, K.H.L., Arzneimittel-Forschung, 1965, 15, 104-117. Male rats (Wistar/Af/Han/Mo)(Han 67) SPF, 230-270 g) were given test substance intraperitoneally (9 animals per group). Two hours later apomorphine (10 mg/kg) was injected subcutaneously and the animals were placed in individual cages for one hour. A cage consisted of a 30 cm high perspex box (12 × 25 cm), without bottom and lid, which during the experiment was placed on corrugated paper. […] Percentage non-biters was plotted on log-probit paper against dose and the ED50 was read from the diagram.

[2] = tested on: methylphenidate-induced stereotyped gnawing; experiment: Methylphenidate antagonism in mice (stereotyped gnawing); type: in vivo, male mice (NMRI/BOM SPF)
Source text: as §1
Pedersen V. and A. V. Christensen: "Antagonism of methylphenidate-induced stereotyped gnawing in mice". Acta pharmacol. et toxicol. 1972, 31, 488-496.
Male mice (NMRI/BOM SPF, 18-25 g) were given an intraperitoneal dose of test compound. Two hours later 60 mg/kg of methylphenidate hydrochloride were injected subcutaneously, and immediately thereafter the animals were placed in cages, 2 mice in each cage, for 1 hour. The cages which during the experiment were placed on corrugated paper, are described under apomorphine antagonism on page 4. In this situation control mice, when given this dose of methylphenidate, will bite the corrugated paper (gnaw-compulsion). All compounds were tested at 5 dose levels using 5 pairs of mice per dose. Percentage non-biters was plotted on log.-probit paper against dose and approximate ED50 values were read from the diagrams.

[3] = Acute toxicity upon intravenous injection in mice; type: in vivo, male mice (NMRI/BOM SPF); conditions: mouse, in vivo, iv, fasted 24 hours
Experimental: (§2) Acute toxicity upon intravenous injection has been tested using groups of five male mice (NMRI/BOM SPF, 18-25 g), fasted for 24 hours. Three or four dose-levels were needed to determine LD50 values according to Miller and Tainter. Estimation of the ED50 and its error by means of logarithmicprobit graph paper.

[4] = tested on: apomorphine-induced vomiting in dogs; experiment: Apomorphine antagonism in dogs (vomiting); type: in vivo, Adult purebred Beagles
Experimental: Adult purebred Beagles of either sex from our own stock were used.
Four dogs were used for each dose level of the drug, which was injected subcutaneously at the back of the neck. At different times after the drug administration the dogs were then challenged with apomorphine according to an "up and down"-schedule using the dose-range 25-400 μg/kg i.v. geometrically spaced. […] In this way it was possible to estimate at which level of apomorphine the dogs were protected at a given time. The dogs were fed half an hour before testing to secure an easy vomiting act.

[5] = tested on: human beings; experiment: Administration to human beings (neuroleptic action); type: in vivo; conditions: single intramuscular injection of about 20 - 100 mg in a light vegetable oil
Source text: Alpha-clopenthixol or an ester thereof and the non-toxic acid addition salts thereof (in the following collectively called "active ingredients") may be administered to animals such as dogs, cats, horses, sheeps or the like, including human beings, both orally and parenterally, and may be used for example in the form of tablets, capsules, powders, syrups or in the form of the usual sterile solutions for injection. Results upon administration to human beings have been very gratifying.
Results upon administration to human beings of the compositions of the invention have been very gratifying. Preferably, however, the compositions are in the form of sterile solutions or suspensions for injection, and in a preferred embodiment of the invention injectable solutions may be prepared from a non-toxic injectable fat or oil, e.g. light vegetable oil, sesam oil, olive oil, arachis oil or ethyl oleate, and they may additionally contain gelling agents, e.g. aluminium stearate, to delay absorption within the body. Such oily solutions have a very prolonged activity when […] intramuscularly, and satisfactory neuroleptic action has been produced by a single intramuscular injection of about 20 - 100 mg of Lu 8- 008 dissolved in a light vegetable oil for as long as 2-4 weeks.

[6] = tested on: mice; experiment: Acute toxicity upon intravenous injection in mice; type: in vivo, male mice (NMRI/BOM SPF); conditions: i.v.; for LD50: fasted 24 hours
Experimental: as §2

[7] = dogs, 10 mg/kg s.c., depot-preparation
[8] = dogs, both dose levels (10 and 20 mg/kg s.c.)
[9] = dogs, 10 mg/kg s.c., aqueous solution

## OCCN1CCN(CCC=C2c3ccccc3Sc3ccc(Cl)cc32)CC1 [alpha-CPT, alpha-isomer of 2-chloro-9-[3'-(N'-2-hydroxyethylpiperazino-N)-propylidene]-thiaxanthene]
[1]; i.p., vs CPT
  activity relative to CPT (times more active): 2- 3 times
[2]; i.p., vs CPT (containing 34% alpha-CPT)
  activity relative to CPT: about twice as active as CPT

## OCCN1CCN(CCC=C2c3ccccc3Sc3ccc(Cl)cc32)CC1 [alpha-CPT 2 HCl, alpha-isomer of 2-chloro-9-[3'-(N'-2-hydroxyethylpiperazino-N)-propylidene]-thiaxanthene]
[3]
  LD50: 105 ± 10 mg/kg
[1]; 1.25 mg/kg i.p.
  % Non-biters: 11%
[1]; 2.5 mg/kg i.p.
  % Non-biters: 44%
[1]; 5 mg/kg i.p.
  % Non-biters: 100%
[1]; 10 mg/kg i.p., 10 mg/kg
  % Non-biters: 100%
[1]; Rattus norvegicus, ip, read-out: ED50
  ED50: 2.4 mg/kg
[2]; 0.31 mg/kg i.p.
  % Non-biters: 20%
[2]; 0.63 mg/kg i.p.
  % Non-biters: 60%
[2]; 1.25 mg/kg i.p.
  % Non-biters: 60%
[2]; 2.5 mg/kg i.p.
  % Non-biters: 100%
[2]; 5 mg/kg i.p., 5 mg/kg
  % Non-biters: 100%
[2]; Mus musculus, ip, methylphenidate hydrochloride 60 mg/kg s.c. 2 h later, read-out: ED50 (approximate)
  ED50: 0.65 mg/kg

## CN1CCc2cccc3c2[C@H]1Cc1ccc(O)c(O)c1-3 [apomorphine]
[4]; Canis lupus familiaris, iv, Beagle dogs, read-out: threshold-dose of apomorphine for provoking vomiting
  minimal effective dose: 0.025 mg/kg

## CCCCCCCCCC(=O)OCCN1CCN(CCC=C2c3ccccc3Sc3ccc(Cl)cc32)CC1 [Lu 8-008, alpha-isomer of the decanoic acid ester of 2-chloro-9-[3'(N'-2-hydroxyethylpiperazino-N)-propylidene]-thiaxanthene]
[4]; dogs, 10 mg/kg s.c.
  duration of protection against apomorphine: 14 days
[4]; dogs, 10 mg/kg s.c., 5% solution
  maximal level of protection (times threshold dose of apomorphine): 2 times threshold
[4]; dogs, 10 mg/kg s.c., 10% solution
  maximal level of protection (times threshold dose of apomorphine): 4 times threshold
[4]; [7]
  sedation: at no time displayed any signs of sedation
  time course of protection level: reached smoothly during the first week p.i., and then declined smoothly during the second week
[4]; dogs, 10 mg/kg s.c., depot-preparation, 5% or 10% solution
  prolongation of the protection against apomorphine, in words: considerable prolongation of the protection against apomorphine
[4]; dogs, 20 mg/kg s.c., depot-preparation
  duration of protection against apomorphine: 3 weeks
[4]; dogs, 20 mg/kg s.c., during the first week
  maximal level of protection (times threshold): 8 times threshold
[4]; dogs, 20 mg/kg s.c., first week
  sedation: slightly sedated
[4]; [8]
  duration of protection, 10% solution compared with 5% solution: the duration was equal
  maximal protection, 10% solution compared with 5% solution: higher and/or more persisting maximal protection against apomorphine
[5]
  duration of satisfactory neuroleptic action: 2-4 weeks

## OCCN1CCN(CCC=C2c3ccccc3Sc3ccc(Cl)cc32)CC1 [beta-CPT, beta-isomer of 2-chloro-9-[3'-(N'-2-hydroxyethylpiperazino-N)-propylidene]-thiaxanthene]
[6]; vs alpha-isomer and the mixture
  acute toxicity compared, in words: somewhat less toxic than the alpha-isomer and the mixture
[1]; doses as high as 80 mg/kg i.p.
  apomorphine antagonism, in words: almost completely inactive
[2]; 20 mg/kg i.p.
  inhibition of methylphenidate-induced compulsive gnawing, in words: complete inhibition
[2]; doses higher and lower than 20 mg/kg i.p.
  inhibition of methylphenidate-induced compulsive gnawing, in words: only partial inhibition

## OCCN1CCN(CCC=C2c3ccccc3Sc3ccc(Cl)cc32)CC1 [beta-CPT 2 HCl]
[6]
  LD50: 134 ± 10 mg/kg i.v.
[1]; 10 mg/kg i.p., 10 mg/kg
  % Non-biters: 11%
[1]; 20 mg/kg i.p.
  % Non-biters: 0%
[1]; 40 mg/kg i.p.
  % Non-biters: 11%
[1]; 80 mg/kg i.p.
  % Non-biters: 11%
[1]; i.p.
  ED50: none
[2]; 5 mg/kg i.p., 5 mg/kg
  % Non-biters: 60%
[2]; 10 mg/kg i.p.
  % Non-biters: 20%
[2]; 20 mg/kg i.p.
  % Non-biters: 100%
[2]; 40 mg/kg i.p.
  % Non-biters: 80%
[2]; 80 mg/kg i.p.
  % Non-biters: 80%

## Cl.Cl.OCCN1CCN(CCC=C2c3ccccc3Sc3ccc(Cl)cc32)CC1 [CPT 2 HCl, 2-chloro-9-[3'-(N'-2-hydroxyethylpiperazino-N)-propylidene]-thiaxanthene]
[6]
  LD50: 111 ± 10 mg/kg i.v.
[4]; dogs, 10 mg/kg s.c.
  duration of protection against apomorphine: 3 days
[4]; [9]
  duration of heavy sedation: about 24 hours
  time p.i. at which maximal protection against apomorphine was afforded: 4 h
[4]; dogs, 10 mg/kg s.c., aqueous solution, 4 hours p.i.
  maximal level of protection against apomorphine (times threshold): about 16 times threshold
[4]; dogs, 10 mg/kg s.c., aqueous solution, day 3
  protection against apomorphine at day 3: restricted to the threshold dose of apomorphine
[4]; dogs, 10 mg/kg s.c., aqueous solution, day 4
  protection against apomorphine at day 4: returned to control level
[4]; dogs, 10 mg/kg s.c., aqueous solution, from 4 h p.i.
  sedation: heavily sedated
[1]; 2.5 mg/kg i.p.
  % Non-biters: 33%
[1]; 5 mg/kg i.p.
  % Non-biters: 44%
[1]; 10 mg/kg i.p.
  % Non-biters: 67%
[1]; 20 mg/kg i.p.
  % Non-biters: 78%
[1]; i.p.
  ED50: 5.5 mg/kg i.p.
[2]; 0.63 mg/kg i.p.
  % Non-biters: 20%
[2]; 1.25 mg/kg i.p.
  % Non-biters: 60%
[2]; 2.5 mg/kg i.p.
  % Non-biters: 80%
[2]; 5 mg/kg i.p.
  % Non-biters: 100%
[2]; 10 mg/kg i.p.
  % Non-biters: 100%
[2]; i.p., methylphenidate hydrochloride 60 mg/kg s.c. 2 h later
  ED50 (approximate): 1.2 mg/kg i.p.
